Laboratory results as given in patent US20250368624A1, “M24B AMINOPEPTIDASE INHIBITORS FOR CARD8 INFLAMMASOME ACTIVATION” (Memorial Sloan-Kettering Cancer Center, priority 2022, published 2025).
pIC50: −log10 of the molar value.

Key:
recombinant human PEPD = recombinant human PEPD (Homo sapiens (Human), UniProt P12955); experiment: PEPD substrate assay (Ala-Pro cleavage, L-alanine assay kit); assay type: biochemical; details: 50 nM recombinant human PEPD, Ala-Pro 40 μM, 25° C.
Description: Protein purification. Human prolidase (PEPD) was generated and purified. XPNPEP1 in pET15-b containing a 6× His tag was expressed in E. coli Rosetta DE3 cells.
Substrate assays. For the PEPD assay, a solution of substrate (Ala-Pro) was prepared in DMSO. 24 μL of 50 nM recombinant human PEPD were added to a 384-well, black, clear-bottom plate (Corning) with 1 μL dipeptide Ala-Pro (final conc. 40 μM). […] For the AMC reporter assays, experiments were performed with cell lysates. 5 μL solution of substrate (2.5 mM Ala-AMC) was added the mixture of 10 μL HEK293T cell lysates (2.5 mg/ml) and 10 μL of indicated compounds in a 384-well, black, clear-bottom plate (Corning) to initiate the reaction. Substrate cleavage was measured as increasing fluorescence signal (Ex/Em: 380/460 nm) recorded at 25° C. for 20 mins. […] H-Lys(abz)-Pro-Pro-pNA substrate was added to a final concentration of 100 μM, and fluorescence was monitored (Ex/Em: 320/410) for 60 mins.

XPNPEP1 = XPNPEP1 (Homo sapiens (Human), UniProt Q9NQW7); experiment: XPNPEP1 substrate assay (H-Lys(abz)-Pro-Pro-pNA); assay type: biochemical; details: XPNPEP1 3.5 nM, substrate 100 μM, 60 mins
Description: Protein purification. Human prolidase (PEPD) was generated and purified. XPNPEP1 in pET15-b containing a 6× His tag was expressed in E. coli Rosetta DE3 cells. Cells were induced with IPTG for 16 h at 37° C., pelleted and lysed in buffer A (20 mM Tris-HCl (pH 7.9), 500 mM NaCl, and 10% (v/v) glycerol) by sonication. Affinity purification chromatography was performed using TALON resin and according to previously published protocols (Li et al., 2008).
Substrate assays. For the PEPD assay, a solution of substrate (Ala-Pro) was prepared in DMSO. 24 μL of 50 nM recombinant human PEPD were added to a 384-well, black, clear-bottom plate (Corning) with 1 μL dipeptide Ala-Pro (final conc. 40 μM). Alanine liberated was measured as increasing fluorescence signal (Resorufin, Ex/Em: 535/587 nm) recorded at 25° C. using an L-alanine assay kit (Abcam, ab83394) at 25° C. according to manufacturer's instructions. For the AMC reporter assays, experiments were performed with cell lysates. 5 μL solution of substrate (2.5 mM Ala-AMC) was added the mixture of 10 μL HEK293T cell lysates (2.5 mg/ml) and 10 μL of indicated compounds in a 384-well, black, clear-bottom plate (Corning) to initiate the reaction. Substrate cleavage was measured as increasing fluorescence signal (Ex/Em: 380/460 nm) recorded at 25° C. for 20 mins. For XPNPEP1 enzymes (XPNPEP1 3.5 nM) were plated on a black 384-well clear bottom plate and treated with the indicated doses of compounds. H-Lys(abz)-Pro-Pro-pNA substrate was added to a final concentration of 100 μM, and fluorescence was monitored (Ex/Em: 320/410) for 60 mins.

MV4;11 WT cells = experiment: CellTiter-Glo cell viability, WT MV4;11 cells; assay type: cell-based; details: Homo sapiens, MV4-11; 24 h, CTG
Description: (§1) CellTiter-Glo cell viability and CytoTox-Fluor cell death assays. Cells were plated (2,000 cells per well) in white, 384-well clear-bottom plates (Corning) using an EL406 Microplate Washer/Dispenser (BioTek) in 25 μL final volume of medium. To the cell plates were added compounds at different concentrations using a pintool (CyBio) and the plates were allowed to incubate in the incubator. After incubation for indicated times, CytoTox-Fluor reagent (Promega, G9262) was added according to the manufacturer's protocol. The assay plates were then incubated for another 30 min before fluorescence was recorded using a Cytation 5 Cell Imaging Multi-Mode Reader (BioTek). Next, CellTiter-Glo reagent (Promega, G7573) was subsequently added to the assay plates following the manufacturer's protocol. Assay plates were shaken on an orbital shaker for 2 min and incubated at 25° C. for 10 min. Luminescence was then read using a Cytation 5 Cell Imaging Multi-Mode Reader (BioTek).

MV4;11 CASP1-/- cells = experiment: CellTiter-Glo cell viability, CASP1-/- MV4;11 cells; assay type: cell-based; details: Homo sapiens, MV4-11; 24 h, CTG
Description: Cloning. CASP1^−/− MV4;11 cells^12; CARD8^−/− MV4;11, THP-1, OCI-AML2 cells^14; DPP8/9^−/− THP-1^12; PEPD^−/−, XPNPEP1^−/−, PEPD XPNPEP1^−/− THP-1 cells were generated. Plasmids for CARD8 variants, CASP1, GSDMD, dTAG-CARD8^ZUC were cloned as described previously (Hollingsworth et al., 2021; Johnson et al., 2018; Sharif et al., 2021).
as §1

OCI-AML2 cells = experiment: Propidium iodide uptake, OCI-AML2 cells; assay type: cell-based; details: 6.25 μM, compared to CQ31
Description: Propidium iodideflux analysis. 2×10^4 MV4;11 or OCI-AML2 cells were plated in 384-well, black, clear-bottom plate (Corning) in RPMI medium. Cells were then treated as indicated and propidium iodide (PI) was added at a final concentration of 10 μM. PI fluorescence was measured at (Ex/Em: 535/617 nm) recorded at 37° C. every 5 mins in a Cytation 5 Cell Imaging Multi-Mode Reader (BioTek). The obtained measurements were baseline corrected to vehicle/DMSO and normalized to maximum response.

N/TERT-1 keratinocytes = experiment: Cell viability of N/TERT-1 keratinocytes (NLRP1 inflammasome); assay type: cell-based, human; details: VbP 10 μM, CQ compounds 20 μM, 24 h, CTG
Description: Cell Culture. HEK293T, THP-1, RAW264.7 cells were purchased from ATCC. MV4;11, OCI-AML2 cells were purchased from DSMZ. N/TERT1 cells were a gift from the Rheinwald Lab (Dickson et al., 2000). HEK293T and RAW264.7 cells were grown in Dulbecco's Modified Eagle's Medium (DMEM) with L-glutamine and 10% fetal bovine serum (FBS). N/TERT1 cells were grown in Keratinocyte serum free medium (KSFM) supplemented with 1× penicillin/streptomycin, bovine pituitary extract (25 μg/ml) and epidermal growth factor (EGF) (0.2 ng/ml). All other cell lines were grown in Roswell Park Memorial Institute (RPMI) medium 1640 with L-glutamine and 10% fetal bovine serum (FBS). All cells were grown at 37° C. in a 5% CO2 atmosphere incubator. Cell lines were regularly tested for mycoplasma using the MycoAlert™ Mycoplasma Detection Kit (Lonza).
as §1

[1] = tested on: primary bone marrow-derived macrophages (BMDMs) and mouse RAW264.7 cells; experiment: LDH release and GSDMD cleavage in BMDMs and RAW264.7 cells (mouse NLRP1); assay type: cell-based; details: VbP 10 μM, CQ31/CQ80 20 μM, 24 h
Description: Mouse BMDM isolation and culture. Bone marrow was harvested from the femurs and tibias of 7-12-week-old C57BL/6J mice. Briefly, femurs and tibias were harvested from mice and crushed with a mortar and pestle in cold 1×PBS supplemented with 2.5% FBS. The mixture was passed through a 70-μm nylon cell strainer. RBCs were lysed for 4-5 min on ice in 1×RBC lysis buffer (Biolegend) and cells were centrifuged at 300×g for 5 min at 4° C. The cell pellet was washed in cold 1×PBS supplemented with 2.5% FBS before being passed again through in a 70-μm nylon cell strainer and counted. Counted cells were plated on non-tissue culture 10-cm plates at 5-10×10^6 cells per plate in DMEM supplemented with 10% FBS and 15-20% L-cell media. Cells were incubated at 37° C. for 6 days before replating and assaying as indicated.
LDH cytotoxicity and immunoblotting assays. HEK293T cells were transiently transfected and treated with inhibitors as indicated. MV4;11, OCI AML2, THP-1, and RAW264.7 cells were plated in 12-well culture plates at 5×10^5 cells/well and treated as indicated. Supernatants were analyzed for LDH activity using the Pierce LDH Cytotoxicity Assay Kit (Life Technologies). LDH activity was quantified relative to a lysis control where cells were lysed in 80 μL of a 9% Triton X-100 solution. For immunoblotting, cells were washed 2× in PBS (pH=7.4), resuspended in PBS, and lysed by sonication. Protein concentrations were determined and normalized using the DCA Protein Assay kit (Bio-Rad). The samples were separated by SDS-PAGE, immunoblotted, and visualized using the Odyssey Imaging System (Li-Cor).

recombinant human PEPD, sequence (P12955 whole entry): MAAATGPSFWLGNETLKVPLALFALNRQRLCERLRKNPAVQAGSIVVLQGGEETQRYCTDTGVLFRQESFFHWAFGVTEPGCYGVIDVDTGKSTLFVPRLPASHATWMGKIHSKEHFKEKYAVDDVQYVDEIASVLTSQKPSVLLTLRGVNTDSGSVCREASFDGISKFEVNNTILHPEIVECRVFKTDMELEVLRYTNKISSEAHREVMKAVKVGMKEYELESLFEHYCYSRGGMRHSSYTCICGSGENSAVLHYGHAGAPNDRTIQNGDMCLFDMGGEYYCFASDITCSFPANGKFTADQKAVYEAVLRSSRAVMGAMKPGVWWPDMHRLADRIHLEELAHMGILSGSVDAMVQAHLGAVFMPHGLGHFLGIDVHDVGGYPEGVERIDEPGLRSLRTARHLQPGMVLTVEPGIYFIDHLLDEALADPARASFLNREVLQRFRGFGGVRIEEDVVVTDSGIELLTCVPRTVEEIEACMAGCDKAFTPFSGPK
XPNPEP1, sequence (Q9NQW7 whole entry): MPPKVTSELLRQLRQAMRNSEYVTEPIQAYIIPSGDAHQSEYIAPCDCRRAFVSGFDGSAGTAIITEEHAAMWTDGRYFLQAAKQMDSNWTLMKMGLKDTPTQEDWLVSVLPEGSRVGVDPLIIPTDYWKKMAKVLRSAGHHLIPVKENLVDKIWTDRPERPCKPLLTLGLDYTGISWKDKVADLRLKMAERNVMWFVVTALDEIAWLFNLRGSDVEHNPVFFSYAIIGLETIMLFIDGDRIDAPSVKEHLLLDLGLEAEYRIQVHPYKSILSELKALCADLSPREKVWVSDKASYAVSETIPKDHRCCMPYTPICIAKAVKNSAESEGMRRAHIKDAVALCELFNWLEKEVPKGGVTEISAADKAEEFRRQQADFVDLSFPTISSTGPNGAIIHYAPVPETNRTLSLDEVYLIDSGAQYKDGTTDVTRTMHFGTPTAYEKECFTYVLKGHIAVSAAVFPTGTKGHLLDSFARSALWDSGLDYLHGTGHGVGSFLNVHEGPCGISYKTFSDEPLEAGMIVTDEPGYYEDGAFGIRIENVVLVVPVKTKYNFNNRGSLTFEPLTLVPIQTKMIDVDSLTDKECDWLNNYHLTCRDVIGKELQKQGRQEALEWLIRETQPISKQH

| SMILES | pIC50 (recombinant human PEPD) | pIC50 (XPNPEP1) | pIC50 (MV4;11 WT cells) | pIC50 (MV4;11 CASP1-/- cells) | lytic cell death by uptake of propidium iodide (OCI-AML2 cells) | cell death in N/TERT-1 keratinocytes (N/TERT-1 keratinocytes) | pyroptosis (LDH release and GSDMD cleavage) [1] |
| --- | --- | --- | --- | --- | --- | --- | --- |
| COC(=O)[C@@H](NC(=O)[C@@H]1CCCN1C(=O)[C@@H](O)[C@H](N)CC(C)C)C(C)C [CQ78, Methyl ((2S,3R)-3-amino-2-hydroxy-5-methylhexanoyl)-L-prolyl-L-valinate] | 5.92 | 4.39 | 6.35 | < 4.70 | more rapid lytic cell death | – | – |
| CC(C)[C@H](N)C(=O)N1CCC[C@H]1B(O)O [VbP, Val-boroPro, reference compound] | – | – | – | – | – | induced cell death | induced pyroptosis |
